Assay results reported in paper PMC7421780 (Future Medicinal Chemistry, 2020).
Where two headings read alike, the source gives them in different places.

Assays:
Mtb H37Rv [1] = test: Minimal bactericidal concentration; format: cell-based, Mycobacterium tuberculosis; settings: Mtb H37Rv aerobic
CYP3A4 = CYP3A4 (Homo sapiens, UniProt P08684); test: Cytochrome P450 inhibition; format: in vitro ADME
Mycobacterium avium = test: MIC against nontuberculous mycobacteria, Alamar blue; format: cell-based
[2] = Human plasma, equilibrium dialysis
in vitro [3] = settings: human
CYP2C9 = CYP2C9 (Homo sapiens, UniProt P11712); test: Cytochrome P450 inhibition; format: in vitro ADME
Mycobacterium abscessus = test: MIC, IC50, IC90 against nontuberculous mycobacteria; format: cell-based
[4] = In vitro microsomal stability assay; settings: human, microsomes
Mtb H37Rv [5] = test: Primary screen: MIC, IC50 and IC90 under aerobic conditions; format: cell-based; settings: Mycobacterium tuberculosis
CYP2B6 = biological target: T1, CYP2B6 (Homo sapiens, UniProt P20813); test: biochemical
T1 sequence (P20813 1-491): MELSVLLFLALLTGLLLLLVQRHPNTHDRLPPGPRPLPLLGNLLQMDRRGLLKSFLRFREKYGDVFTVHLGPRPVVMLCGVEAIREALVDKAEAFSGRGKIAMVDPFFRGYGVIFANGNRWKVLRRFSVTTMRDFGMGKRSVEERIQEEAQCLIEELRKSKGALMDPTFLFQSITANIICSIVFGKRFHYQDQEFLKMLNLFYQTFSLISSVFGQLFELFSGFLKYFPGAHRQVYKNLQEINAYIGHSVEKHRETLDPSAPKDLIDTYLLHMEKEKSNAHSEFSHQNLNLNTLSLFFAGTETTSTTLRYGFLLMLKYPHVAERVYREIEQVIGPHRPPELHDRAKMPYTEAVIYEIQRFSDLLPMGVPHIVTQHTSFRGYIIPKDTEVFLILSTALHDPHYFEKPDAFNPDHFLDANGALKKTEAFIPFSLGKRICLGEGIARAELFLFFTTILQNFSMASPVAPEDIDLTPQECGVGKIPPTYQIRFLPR

[6] = Caco-2 cell monolayer permeability assay; settings: human, Caco-2
HepG2 cytotoxicity = format: cell-based; settings: human, HepG2 cells
intracellular Mtb H37Rv = test: microbe, parasite or virus in culture; format: cell-based; settings: Mycobacterium tuberculosis
CYP2C8 = biological target: T2, CYP2C8 (Homo sapiens, UniProt P10632); test: biochemical
T2 sequence (P10632 1-490): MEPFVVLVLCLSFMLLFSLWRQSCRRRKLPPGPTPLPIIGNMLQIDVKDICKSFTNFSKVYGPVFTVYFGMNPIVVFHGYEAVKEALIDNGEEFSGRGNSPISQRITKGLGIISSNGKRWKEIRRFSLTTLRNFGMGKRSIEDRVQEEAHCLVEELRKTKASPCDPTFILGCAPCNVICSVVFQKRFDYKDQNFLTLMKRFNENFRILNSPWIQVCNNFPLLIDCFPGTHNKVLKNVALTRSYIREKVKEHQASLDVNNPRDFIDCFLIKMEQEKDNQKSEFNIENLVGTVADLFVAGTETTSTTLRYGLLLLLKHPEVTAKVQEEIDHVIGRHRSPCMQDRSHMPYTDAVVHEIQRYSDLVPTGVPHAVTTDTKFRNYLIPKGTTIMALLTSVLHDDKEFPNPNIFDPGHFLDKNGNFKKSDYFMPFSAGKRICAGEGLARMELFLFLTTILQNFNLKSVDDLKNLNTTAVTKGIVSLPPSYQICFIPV

CYP2C19 = CYP2C19 (Homo sapiens, UniProt P33261); test: biochemical
NRP Mtb H37Rv = test: microbe, parasite or virus in culture; format: cell-based; settings: Mycobacterium tuberculosis
in vitro [7] = settings: human; remark: listed apart in the source
Mtb H37Rv [8] = test: Secondary assay: MIC, IC50 and IC90 repeated at lower starting concentrations; format: cell-based; settings: Mycobacterium tuberculosis
CYP2D6 = CYP2D6 (Homo sapiens, UniProt P10635); test: biochemical
CYP2D6, sequence (P10635 whole entry): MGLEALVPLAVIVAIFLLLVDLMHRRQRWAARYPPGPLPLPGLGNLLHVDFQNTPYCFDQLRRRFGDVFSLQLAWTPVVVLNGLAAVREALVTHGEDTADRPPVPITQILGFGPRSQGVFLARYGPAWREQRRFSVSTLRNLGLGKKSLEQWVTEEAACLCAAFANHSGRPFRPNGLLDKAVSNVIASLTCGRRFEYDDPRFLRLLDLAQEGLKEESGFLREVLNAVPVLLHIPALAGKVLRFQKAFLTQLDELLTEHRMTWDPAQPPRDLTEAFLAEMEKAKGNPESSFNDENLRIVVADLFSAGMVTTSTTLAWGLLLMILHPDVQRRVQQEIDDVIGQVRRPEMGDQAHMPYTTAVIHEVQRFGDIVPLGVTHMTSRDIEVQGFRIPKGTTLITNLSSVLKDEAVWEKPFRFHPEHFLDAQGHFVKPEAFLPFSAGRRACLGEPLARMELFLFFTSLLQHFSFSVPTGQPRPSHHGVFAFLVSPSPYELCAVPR

CYP3A4, sequence (P08684 whole entry): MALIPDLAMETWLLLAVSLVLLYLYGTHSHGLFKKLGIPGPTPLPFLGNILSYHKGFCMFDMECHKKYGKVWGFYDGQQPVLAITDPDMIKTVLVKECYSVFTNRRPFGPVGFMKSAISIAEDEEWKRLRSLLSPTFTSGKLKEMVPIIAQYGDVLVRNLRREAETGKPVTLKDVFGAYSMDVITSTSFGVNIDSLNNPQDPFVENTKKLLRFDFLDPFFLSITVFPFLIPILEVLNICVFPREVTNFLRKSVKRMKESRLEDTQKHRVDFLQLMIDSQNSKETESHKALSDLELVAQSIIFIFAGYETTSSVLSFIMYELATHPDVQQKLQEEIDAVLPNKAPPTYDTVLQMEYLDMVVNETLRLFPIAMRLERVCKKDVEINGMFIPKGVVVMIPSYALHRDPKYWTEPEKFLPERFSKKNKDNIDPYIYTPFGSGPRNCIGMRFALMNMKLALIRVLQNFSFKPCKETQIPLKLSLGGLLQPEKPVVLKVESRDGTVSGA
CYP2C19, sequence (P33261 whole entry): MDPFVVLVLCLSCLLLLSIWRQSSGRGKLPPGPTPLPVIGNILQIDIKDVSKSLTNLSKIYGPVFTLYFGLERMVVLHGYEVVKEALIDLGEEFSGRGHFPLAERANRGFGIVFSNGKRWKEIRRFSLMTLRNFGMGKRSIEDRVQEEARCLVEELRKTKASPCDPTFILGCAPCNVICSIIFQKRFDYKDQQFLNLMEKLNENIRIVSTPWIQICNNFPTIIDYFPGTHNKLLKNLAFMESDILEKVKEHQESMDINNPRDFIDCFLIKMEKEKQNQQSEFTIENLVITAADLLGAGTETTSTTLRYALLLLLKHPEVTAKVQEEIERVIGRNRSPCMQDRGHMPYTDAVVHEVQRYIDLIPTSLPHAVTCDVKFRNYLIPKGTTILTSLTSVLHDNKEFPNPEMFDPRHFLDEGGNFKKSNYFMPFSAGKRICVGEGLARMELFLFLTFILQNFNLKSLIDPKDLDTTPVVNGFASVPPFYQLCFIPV
CYP2C9, sequence (P11712 whole entry): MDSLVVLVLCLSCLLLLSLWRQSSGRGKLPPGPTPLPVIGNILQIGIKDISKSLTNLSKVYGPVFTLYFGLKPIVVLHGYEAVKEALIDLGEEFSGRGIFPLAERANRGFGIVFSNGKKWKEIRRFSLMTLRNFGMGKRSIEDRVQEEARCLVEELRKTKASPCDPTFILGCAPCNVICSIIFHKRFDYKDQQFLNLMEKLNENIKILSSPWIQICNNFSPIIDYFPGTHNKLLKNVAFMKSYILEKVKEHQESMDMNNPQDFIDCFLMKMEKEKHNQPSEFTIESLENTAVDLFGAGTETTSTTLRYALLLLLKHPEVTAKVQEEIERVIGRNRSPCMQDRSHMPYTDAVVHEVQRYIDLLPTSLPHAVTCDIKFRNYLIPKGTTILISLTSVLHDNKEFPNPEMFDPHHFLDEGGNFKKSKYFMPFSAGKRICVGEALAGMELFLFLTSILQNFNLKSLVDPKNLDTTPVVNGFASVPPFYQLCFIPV

Question: Which “mechanism of action (bacteriostatic or bactericidal)” value (Mtb H37Rv [1]) does the source give for `O=C(C[n+]1cn(Cc2cccc(Cn3c[n+](CC(=O)c4ccc([N+](=O)[O-])cc4)c4ccccc43)n2)c2ccccc21)c1ccc([N+](=O)[O-])cc1.[Br-].[Br-]` [Compound 6f, 1,1′-(pyridine-2,6-diylbis(methylene))bis(3-(2-(4-nitrophenyl)-2-oxoethyl)-1H-benzo[d]imidazol-3-ium) bromide] here?
Answer: bactericidal

Question: What about the IC50 (CYP3A4) of the same molecule?
Answer: 6.6 µM

Question: What about the IC50 (CYP3A4; IC50 CYP3A4 – midazolam, probe substrate midazolam, human liver microsomes) of the same molecule?
Answer: > 20 µM

Question: What about the “activity against M. avium (in words)” value (Mycobacterium avium) of the same molecule?
Answer: moderate activity

Question: And the MIC (Mycobacterium avium; Mycobacterium avium)?
Answer: 200 µM

Question: What about the “Mean plasma fraction unbound” value [2] of the same molecule?
Answer: 7.8%

Question: What about the IC50 (in vitro [3]) of the same molecule?
Answer: > 50 µM

Question: What about the IC50 (CYP2C9) of the same molecule?
Answer: > 20 µM

Question: What about the “activity against M. abscessus (in words)” value (Mycobacterium abscessus) of the same molecule?
Answer: showed activity

Question: What about the IC50 (Mycobacterium abscessus; Mycobacteroides abscessus) of the same molecule?
Answer: 56 µM

Question: What about the IC90 (Mycobacterium abscessus; Mycobacteroides abscessus) of the same molecule?
Answer: 68 µM

Question: And the MIC (Mycobacterium abscessus; Mycobacteroides abscessus)?
Answer: 88 µM

Question: What about the half-life at 1 μM ([4]; NADPH-dependent T1/2, Human) of the same molecule?
Answer: 1.77 h

Question: And the microsomal CLint at 1 μM ([4]; NADPH-free CLint)?
Answer: < 12.8 µL/min/mg

Question: What about the half-life at 1 μM ([4]; NADPH-free T1/2, Human) of the same molecule?
Answer: > 3 h

Question: And the IC50 (Mtb H37Rv [5])?
Answer: 14 µM

Question: What about the IC90 (Mtb H37Rv [5]) of the same molecule?
Answer: 21 µM

Question: What about the MIC (Mtb H37Rv [5]) of the same molecule?
Answer: 24 µM

Question: What about the IC50 (CYP2B6) of the same molecule?
Answer: > 20 µM

Question: And the Papp B→A [6]?
Answer: 0.095 ×10⁻⁶ cm/s

Question: And the efflux ratio [6]?
Answer: 0.2

Question: And the IC50 at 72 h (HepG2 cytotoxicity)?
Answer: > 100 µM

Question: And the IC50 (intracellular Mtb H37Rv; THP-1, read-out: IC50 intracell)?
Answer: 14 µM

Question: And the IC90 (intracellular Mtb H37Rv; THP-1, read-out: IC90 intracell)?
Answer: 26 µM

Question: What about the IC50 (CYP2C8) of the same molecule?
Answer: > 20 µM

Question: And the IC50 (CYP2C19)?
Answer: 8.8 µM

Question: What about the IC50 (NRP Mtb H37Rv; Low oxygen) of the same molecule?
Answer: 9.7 µM

Question: What about the IC90 (NRP Mtb H37Rv; Low oxygen) of the same molecule?
Answer: 33 µM

Question: And the MIC (NRP Mtb H37Rv; Low oxygen)?
Answer: 120 µM

Question: And the IC50 (NRP Mtb H37Rv; Normal oxygen)?
Answer: 9.9 µM

Question: And the IC90 (NRP Mtb H37Rv; Normal oxygen)?
Answer: 25 µM

Question: And the MIC (NRP Mtb H37Rv; Normal oxygen)?
Answer: 71 µM

Question: And the recovery (in vitro [7])?
Answer: 24.5%

Question: And the fraction unbound (in vitro [7]; plasma)?
Answer: 0.078

Question: What about the IC50 (Mtb H37Rv [8]) of the same molecule?
Answer: 11 µM

Question: What about the IC90 (Mtb H37Rv [8]) of the same molecule?
Answer: 20 µM

Question: What about the MIC (Mtb H37Rv [8]; read-out: MIC aerobic condition) of the same molecule?
Answer: 16 µM

Question: And the IC50 (CYP2D6)?
Answer: 0.92 µM
